assay: Ligand facilitated Fe(III) efflux from liposomes; details: 10 uM ligand concentration; Table 1
Experimental: Assay 1: Ligand Facilitated Fe(III) Efflux from Liposomes Preparation of POPC (1-palmitoyl-2-oleoyl-sn-glycero-3-phosphocholine): Cholesterol Liposomes:
A 1M buffer solution of MES and Tris was prepared by dissolving 121.14 grams of Tris base and 213.25 grams of MES hydrate in 500 mL of MilliQ water and adjusted to pH7.0 using an […] HCl solution before bringing the total volume of the solution to 1 L. A 500 mM solution of FeCl3 was prepared by dissolving 0.811 grams of anhydrous FeCl3 in 10 mL of a 0.1M H2SO4 aqueous solution. Inside buffer is prepared in a 50 mL falcon tube, which was added with 25 mL of MilliQ water, 1.61 g of sodium citrate, 1.5 mL of the above FeCl3 solution, and 2.5 mL of the 1M MES/Tris HCl buffer (pH=7.0), and finally additional MilliQ H2O to bring to a 50 mL final volume.
Lipid solution is prepared by dissolving 206.9 mg of POPC (1-palmitoyl-2-oleoyl-sn-glycero-3-phosphocholine) and 8.6 mg of cholesterol in 10 mL of ethanol.
The lipids solution and the inside buffer solution are independently loaded into 10 mL luer lock syringes for loading into a virgin cartridge on a Precision Nanosystems NanoAssembler to prepare unilamaller liposomes with the following parameters: 7.5 mL total volume, 1.5:1 mixing ratio of inside buffer:lipids solution, 8 mL/min flow rate, ambient temperature, 0.35 mL start waste, and 0.05 mL of end waste. 7.5 mL of liposomes is harvested for purification on a 6-inch long, 1-inch diameter Sephadex G-50 column wetted in 600 mM sodium ascorbate and 50 mM MES/Tris HCl pH 7.0 buffer. This buffer also serves as the column running buffer. The crude liposome solution is carefully loaded with minimal volume of running buffer above the top of the Sphadex, allowed to enter the matrix, and the column is run with the continued addition of running buffer. The eluting liposomes, observed as a milky and turbid solution, are collected until free iron begins to elute (observed as a deep purple color) and the fractions are pooled for phosphorus quantitation.
Phosphorus content of eluted liposomes was determined by the process outlined below. 10 uL of liposome elution and a running buffer blank are added to a 5 mL glass vial containing 450 uL of a 8.9 M aqueous H2SO4 solution, the mixture is heated to 225° C. for 25 minutes in an aluminum heat block to hydrolyze POPC and cooled for 5 minutes. 200 ul of a 30% hydrogen peroxide aqueous solution is added to each vial and heated to 225° C. for 25 minutes. After cooling, the phosphorus content was determined using an Abcam Phosphate Assay kit, with buffer subtracted phosphorus levels determined against a standard curve of phosphate included in the kit. Liposomes were diluted to 1 mM phosphate in Running Buffer for use in assays after accounting for dilutions made during phospholipid digestion.
Determination of the rate at which a small molecule ligand liberates (transport) Ferric iron from liposomes is performed in clear bottom black 384-well plates on a Spectramax i3x set to read the absorbance at 562 nm in the kinetic mode every 60 seconds for 120 minutes. 1 uL of serially diluted DMSO stock solution of a small molecule ligand is added to wells in triplicate to give the final concentrations of 40, 20, 10, 5, 2.5, and 1.25 uM of the ligand at 80 μL final volume, followed by addition of 1 μL of 100 mM Ferrozine in water to give a final concentration of 1 mM ferrozine. 78 uL of liposomes diluted to 1 mM phosphorus in running buffer is added to wells as quickly as possible (using a digital repeater mulchannel pipette) with the kinetic read initiated as rapidly as possible after addition of liposomes to all wells. Typically, eight compounds at six concentrations are tested in triplicate simultaneously.
Upon completion of kinetic read, the data for individual reads is fitted to a single phase association regression with the equation Y=(Y0−YMax)^(−kX)+YMax, with Y being the 562 absorbance value and X being time in minutes. […]

Structure (SMILES)	Liposome Fe transport kefflux at 10 10 μM
O=c1cccc(-c2ccncc2)cc1O [Ex.7, 2-hydroxy-4-(pyridin-4-yl)cyclohepta-2,4,6-trien-1-one]	0.1-5
Nc1ccc(-c2cccc(=O)c(O)c2)cn1 [Ex.13, 4-(6-aminopyridin-3-yl)-2-hydroxycyclohepta-2,4,6-trien-1-one]	0.1-5
Cc1ccncc1-c1cccc(=O)c(O)c1 [Ex.14, 2-hydroxy-4-(4-methylpyridin-3-yl)cyclohepta-2,4,6-trien-1-one]	0.1-5
Cc1nc(C)c(-c2cccc(=O)c(O)c2)cc1F.O=C(O)C(F)(F)F [Ex.20, 4-(5-fluoro-2,6-dimethylpyridin-3-yl)-2-hydroxycyclohepta-2,4,6-trien-1-one]	0.1-5
Cc1nc(C)c(-c2ccc(O)c(=O)cc2)cc1F.O=C(O)C(F)(F)F [Ex.21, 5-(5-fluoro-2,6-dimethylpyridin-3-yl)-2-hydroxycyclohepta-2,4,6-trien-1-one]	0.1-5
O=c1ccc(-c2ccc(F)cn2)ccc1O [Ex.22, 5-(5-fluoropyridin-2-yl)-2-hydroxycyclohepta-2,4,6-trien-1-one]	0.1-5
Cc1cc(-c2ccc(F)cn2)ccc(O)c1=O.O=C(O)C(F)(F)F [Ex.25, 4-(5-fluoropyridin-2-yl)-7-hydroxy-2-methylcyclohepta-2,4,6-trien-1-one]	5-7.5
Cc1cccc(-c2cncc(F)c2)c(=O)c1O.O=C(O)C(F)(F)F [Ex.27, 7-(5-fluoropyridin-3-yl)-2-hydroxy-3-methylcyclohepta-2,4,6-trien-1-one]	10-25
CSc1nccc(-c2ccccc(O)c2=O)n1 [Ex.40, 2-hydroxy-7-(2-(methylthio)pyrimidin-4-yl)cyclohepta-2,4,6-trien-1-one]	5-7.5
Nc1ncc(-c2cccc(=O)c(O)c2)cn1.O=C(O)C(F)(F)F [Ex.41, 4-(2-aminopyrimidin-5-yl)-2-hydroxycyclohepta-2,4,6-trien-1-one]	0.1-5
O=c1cccc(-c2ncccn2)cc1O [Ex.43, 2-hydroxy-4-(pyrimidin-2-yl)cyclohepta-2,4,6-trien-1-one]	5-7.5
O=c1ccc(-c2ncccn2)ccc1O [Ex.44, 2-hydroxy-5-(pyrimidin-2-yl)cyclohepta-2,4,6-trien-1-one]	0.1-5
Cc1cncc(-c2cccc(=O)c(O)c2)c1 [Ex.55, 2-hydroxy-4-(5-methylpyridin-3-yl)cyclohepta-2,4,6-trien-1-one]	0.1-5
Cc1ncc(F)cc1-c1ccc(O)c(=O)cc1 [Ex.60, 5-(5-fluoro-2-methylpyridin-3-yl)-2-hydroxycyclohepta-2,4,6-trien-1-one]	0.1-5

same assay, conditions: 10 uM ligand concentration; Table 2

Structure (SMILES)	Liposome Fe transport Kefflux at 10 μM
CC(C)c1cccc(-c2cncc(F)c2)c(=O)c1O [Ex.62, 7-(5-fluoropyridin-3-yl)-2-hydroxy-3-isopropylcyclohepta-2,4,6-trien-1-one]	<0.1
Cc1c(F)cncc1-c1ccc(O)c(=O)c(C)c1 [Ex.63, 4-(5-fluoro-4-methylpyridin-3-yl)-7-hydroxy-2-methylcyclohepta-2,4,6-trien-1-one]	10-25
Cc1c(F)cncc1-c1ccc(O)c(=O)c(C(C)C)c1 [Ex.64, 4-(5-fluoro-4-methylpyridin-3-yl)-7-hydroxy-2-isopropylcyclohepta-2,4,6-trien-1-one]	<0.1
O=c1ccc(Oc2ccc(F)cc2)ccc1O [Ex.65, 5-(4-fluorophenoxy)-2-hydroxycyclohepta-2,4,6-trien-1-one]	5-7.5
O=c1ccccc(-c2c(F)cccc2F)c1O [Ex.68, 3-(2,6-difluorophenyl)-2-hydroxycyclohepta-2,4,6-trien-1-one]	7.5-10
O=c1ccccc(-c2ncccc2F)c1O [Ex.71, 3-(3-fluoropyridin-2-yl)-2-hydroxycyclohepta-2,4,6-trien-1-one]	0.1-5
O=c1ccccc(-c2ccc(F)cn2)c1S [Ex.72, 3-(5-fluoropyridin-2-yl)-2-mercaptocyclohepta-2,4,6-trien-1-one]	7.5-10
O=C1C=CC(CCc2nc(-c3ccccc(=O)c3O)ccc2F)S1 (stereo not drawn) [Ex.74, 5-(2-(3-fluoro-6-(2-hydroxy-3-oxocyclohepta-1,4,6-trien-1-yl)pyridin-2-yl)ethyl)thiophen-2(5H)-one]	0.1-5
Cc1cccc(Oc2ccc(F)cc2F)c(O)c1=O [Ex.77, 3-(2,4-difluorophenoxy)-2-hydroxy-7-methylcyclohepta-2,4,6-trien-1-one]	0.1-5
Cc1cccc(Oc2ccccc2)c(O)c1=O [Ex.78, 2-hydroxy-7-methyl-3-phenoxycyclohepta-2,4,6-trien-1-one]	0.1-5
O=c1ccccc(-c2cocn2)c1O [Ex.79, 2-hydroxy-3-(oxazol-4-yl)cyclohepta-2,4,6-trien-1-one]	5-7.5
O=c1ccccc(-c2nccs2)c1O [Ex.80, 2-hydroxy-3-(thiazol-2-yl)cyclohepta-2,4,6-trien-1-one]	5-7.5
O=c1c(F)cccc(-c2cscn2)c1O [Ex.81, 7-fluoro-2-hydroxy-3-(thiazol-4-yl)cyclohepta-2,4,6-trien-1-one]	7.5-10
O=c1c(Cl)cccc(-c2cscn2)c1O [Ex.82, 7-chloro-2-hydroxy-3-(thiazol-4-yl)cyclohepta-2,4,6-trien-1-one]	0.1-5
O=c1ccc(F)cc(-c2cscn2)c1O [Ex.83, 5-fluoro-2-hydroxy-3-(thiazol-4-yl)cyclohepta-2,4,6-trien-1-one]	0.1-5
COC(=O)Cc1ccc(Oc2ccccc(=O)c2O)c(F)c1 [Ex.84, methyl 2-(3-fluoro-4-((2-hydroxy-3-oxocyclohepta-1,4,6-trien-1-yl)oxy)phenyl)acetate]	5-7.5
O=c1ccccc(-c2ccns2)c1O [Ex.85, 2-hydroxy-3-(isothiazol-5-yl)cyclohepta-2,4,6-trien-1-one]	0.1-5
COC(=O)c1ccc(Oc2ccccc(=O)c2O)c(F)c1 [Ex.86, methyl 3-fluoro-4-((2-hydroxy-3-oxocyclohepta-1,4,6-trien-1-yl)oxy)benzoate]	0.1-5
O=c1ccc(C(CO)Cc2ccccc2)cc(-c2cscn2)c1O (stereo not drawn) [Ex.87, 2-hydroxy-5-(1-hydroxy-3-phenylpropan-2-yl)-3-(thiazol-4-yl)cyclohepta-2,4,6-trien-1-one]	0.1-5

Reference: US20240018105A1, “TROPOLONE DERIVATIVES AND TAUTOMERS THEREOF FOR IRON REGULATION IN ANIMALS” (Kinesid Therapeutics, Inc., priority 2019, published 2024)
